Drawing on ChEMBL document CHEMBL4414595, “Tripterfordins A-O, Dihydro-β-agarofuran Sesquiterpenoids from the Leaves of Tripterygium wilfordii” (J Nat Prod, 2019), this text covers IC50 for 16 compounds.

For orientation: IC50 means the concentration at which inhibition is half-maximal.

SMILES strings stand for the structures. Where only a bound is given, the exact number is not on record here.

This test has as its system RAW264.7. Description: Anti-inflammatory activity in mouse RAW264.7 cells assessed as inhibition of LPS-induced NO production by Griess assay. In kind it is functional, cell-based. (Griess reagent forms a coloured azo dye with nitrite.)
Consider `C[C@]12CCC(=O)C=C1CC[C@@H]1[C@@H]2[C@@H](O)C[C@@]2(C)[C@H]1CC[C@]2(O)C(=O)COC(=O)CCC(=O)O` [HYDROCORTISONE SODIUM SUCCINATE], for which the IC50 amounted to 42.4 µM. Then `CC(=O)OC[C@]12[C@H](OC(C)=O)[C@@H](OC(C)=O)[C@@H]3[C@@H](O)[C@]1(OC3(C)C)[C@H](C)[C@@H](O)[C@H](OC(C)=O)[C@@H]2OC(=O)/C=C/c1ccccc1`, with more than 100 µM. As for `CC(=O)OC[C@]12[C@H](OC(C)=O)[C@@H](OC(C)=O)[C@@H]3[C@@H](O)[C@]1(OC3(C)C)[C@H](C)C[C@H](OC(C)=O)[C@@H]2OC(=O)/C=C\c1ccccc1`, the IC50 is 28.2 µM. Take `CC(=O)OC[C@]12[C@H](OC(C)=O)[C@@H](O)[C@@H]3[C@@H](O)[C@]1(OC3(C)C)[C@@](C)(O)C[C@H](O)[C@@H]2OC(=O)/C=C/c1ccccc1`: the IC50 is more than 100 µM. Turning to `CC(=O)OC[C@]12[C@H](OC(C)=O)[C@@H](OC(C)=O)[C@@H]3C[C@]1(OC3(C)C)[C@@](C)(O)C[C@H](OC(C)=O)[C@@H]2OC(=O)/C=C\c1ccccc1`, the IC50 was determined as 19.1 µM.

As to `CC(=O)OC[C@]12[C@H](OC(C)=O)[C@@H](OC(C)=O)[C@@H]3[C@@H](O)[C@]1(OC3(C)C)[C@@](C)(O)C[C@H](OC(C)=O)[C@@H]2OC(=O)/C=C\c1ccccc1`, the IC50 was 31 µM. The same measure for `CC(=O)OC[C@]12[C@H](OC(C)=O)[C@@H](OC(C)=O)[C@@H]3[C@@H](O)[C@]1(OC3(C)C)[C@@](C)(O)[C@@H](O)[C@H](OC(C)=O)[C@@H]2OC(=O)/C=C/c1ccccc1`: 53.7 µM; for `CC(=O)OC[C@]12[C@H](OC(C)=O)[C@@H](OC(C)=O)[C@@H]3[C@@H](O)[C@]1(OC3(C)C)[C@@](C)(O)C[C@H](OC(C)=O)[C@@H]2OC(=O)/C=C/c1ccccc1`: 24.2 µM; for `CC(=O)OC[C@]12[C@H](OC(C)=O)[C@@H](OC(C)=O)[C@@H]3[C@@H](OC(C)=O)[C@]1(OC3(C)C)[C@@](C)(O)C[C@H](OC(C)=O)[C@@H]2OC(=O)/C=C\c1ccccc1`: more than 100 µM.

Consider `CC(=O)OC[C@]12[C@H](OC(C)=O)C(=O)[C@@H]3C[C@]1(OC3(C)C)[C@@](C)(O)C[C@H](OC(C)=O)[C@@H]2OC(=O)/C=C/c1ccccc1`, for which the half-maximal inhibitory concentration (IC50) was more than 100 µM. With `CC(=O)OC[C@]12[C@H](OC(C)=O)[C@@H](OC(C)=O)[C@@H]3C[C@]1(OC3(C)C)[C@@](C)(O)C[C@H](OC(C)=O)[C@@H]2OC(=O)/C=C/c1ccccc1`, the half-maximal inhibitory concentration (IC50) is more than 100 µM.

Take `CC(=O)OC[C@]12[C@H](OC(C)=O)[C@@H](OC(C)=O)[C@@H]3C[C@]1(OC3(C)C)[C@H](C)C[C@H](OC(C)=O)[C@@H]2OC(=O)/C=C/c1ccccc1`: the IC50 is more than 100 µM. Take `CC(=O)OC[C@]12[C@H](OC(C)=O)[C@@H](OC(C)=O)[C@@H]3C[C@]1(OC3(C)C)[C@H](C)C[C@H](OC(C)=O)[C@@H]2OC(=O)/C=C\c1ccccc1`: the IC50 was more than 100 µM.

For the compound `CC(=O)O[C@H]1C[C@@H](C)[C@]23OC(C)(C)[C@H]([C@H](O)[C@@H](OC(=O)c4ccccc4)[C@]2(CO)[C@H]1OC(=O)/C=C/c1ccccc1)[C@H]3OC(C)=O`, the IC50 was more than 100 µM. Turning to `CC(=O)OC[C@]12[C@H](OC(C)=O)C(=O)[C@@H]3[C@@H](O)[C@]1(OC3(C)C)[C@@](C)(O)C[C@H](OC(C)=O)[C@@H]2OC(=O)/C=C/c1ccccc1`, the IC50 was more than 100 µM. Take `CC(=O)OC[C@]12[C@H](OC(C)=O)[C@@H](OC(C)=O)[C@@H]3[C@@H](O)[C@]1(OC3(C)C)[C@H](C)C[C@H](OC(C)=O)[C@@H]2OC(=O)/C=C/c1ccccc1`: the 50% inhibitory concentration (IC50) stood at 11.9 µM.
